Data from the supplement of paper PMC10307832.

Assays:
Assay in all cases: relative viability (nuclei count vs DMSO), 5 days (fraction); higher = more cells survive
Alisertib + Phenformin = compound: COc1cc(Nc2ncc3c(n2)-c2ccc(Cl)cc2C(c2c(F)cccc2OC)=NC3)ccc1C(=O)O [Alisertib] + N=C(N)NC(=N)NCCc1ccccc1 [Phenformin] (partner 250 µM)
Procedure, shortened: (§1)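 Relative viability divides the nuclei count in treated wells by that in vehicle wells. Lung cancer cell lines were seeded in 1536-well plates, dosed by pin tool the next day, and fixed and stained after 5 days in one step with final 0.05% Triton X-100, 1% formaldehyde and 1 ug/ml Hoechst. Dosing was a single drug or a fixed anchor-drug dose plus five library-drug doses (not always all listed) in √10 steps, and values are medians of duplicate plates imaged at 4×.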

Alisertib + Pictilisib = compound: COc1cc(Nc2ncc3c(n2)-c2ccc(Cl)cc2C(c2c(F)cccc2OC)=NC3)ccc1C(=O)O [Alisertib] + CS(=O)(=O)N1CCN(Cc2cc3nc(-c4cccc5[nH]ncc45)nc(N4CCOCC4)c3s2)CC1 [Pictilisib] (partner 1 µM)
Procedure, shortened: as §1

Alisertib + Decitabine = compound: COc1cc(Nc2ncc3c(n2)-c2ccc(Cl)cc2C(c2c(F)cccc2OC)=NC3)ccc1C(=O)O [Alisertib] + Nc1ncn([C@H]2C[C@H](O)[C@@H](CO)O2)c(=O)n1 [Decitabine] (partner 2 µM)
Procedure, shortened: as §1

Alisertib + Palbociclib = compound: COc1cc(Nc2ncc3c(n2)-c2ccc(Cl)cc2C(c2c(F)cccc2OC)=NC3)ccc1C(=O)O [Alisertib] + CC(=O)c1c(C)c2cnc(Nc3ccc(N4CCNCC4)cn3)nc2n(C2CCCC2)c1=O [Palbociclib] (partner 0.5 µM)
Procedure, shortened: as §1

| Cell Line | relative viability (Alisertib + Phenformin; first compound 0.005 µM) | relative viability (Alisertib + Phenformin; first compound 0.01581 µM) | relative viability (Alisertib + Phenformin; first compound 0.05 µM) | relative viability (Alisertib + Phenformin; first compound 0.1581 µM) | relative viability (Alisertib + Phenformin; first compound 0.5 µM) | relative viability (Alisertib + Pictilisib; first compound 0.005 µM) | relative viability (Alisertib + Pictilisib; first compound 0.01581 µM) | relative viability (Alisertib + Pictilisib; first compound 0.05 µM) | relative viability (Alisertib + Pictilisib; first compound 0.1581 µM) | relative viability (Alisertib + Pictilisib; first compound 0.5 µM) | relative viability (Alisertib + Decitabine; first compound 0.005 µM) | relative viability (Alisertib + Decitabine; first compound 0.01581 µM) | relative viability (Alisertib + Decitabine; first compound 0.05 µM) | relative viability (Alisertib + Decitabine; first compound 0.1581 µM) | relative viability (Alisertib + Decitabine; first compound 0.5 µM) | relative viability (Alisertib + Palbociclib; first compound 0.005 µM) | relative viability (Alisertib + Palbociclib; first compound 0.01581 µM) | relative viability (Alisertib + Palbociclib; first compound 0.05 µM) | relative viability (Alisertib + Palbociclib; first compound 0.1581 µM) | relative viability (Alisertib + Palbociclib; first compound 0.5 µM) |
| --- | --- | --- | --- | --- | --- | --- | --- | --- | --- | --- | --- | --- | --- | --- | --- | --- | --- | --- | --- | --- |
| LCLC-103H | 0.305 | 0.304 | 0.316 | 0.175 | 0.187 | 0.588 | 0.687 | 0.573 | 0.211 | 0.206 | 0.72 | 0.714 | 0.355 | 0.315 | 0.431 | 0.44 | 0.485 | 0.385 | 0.335 | 0.4 |
| NCI-H441 | 0.755 | 0.444 | 0.2 | 0.255 | 0.249 | 0.402 | 0.229 | 0.118 | 0.139 | 0.123 | 0.227 | 0.197 | 0.137 | 0.152 | 0.153 | 0.182 | 0.225 | 0.117 | 0.125 | 0.123 |
| SW 1573 | 0.371 | 0.256 | 0.178 | 0.113 | 0.0928 | 0.466 | 0.387 | 0.2 | 0.158 | 0.112 | 0.419 | 0.338 | 0.212 | 0.125 | 0.109 | 0.304 | 0.27 | 0.152 | 0.134 | 0.117 |
| BEN | 0.283 | 0.299 | 0.233 | 0.207 | 0.184 | 0.554 | 0.508 | 0.276 | 0.24 | 0.224 | 0.607 | 0.51 | 0.304 | 0.363 | 0.325 | 0.45 | 0.444 | 0.348 | 0.327 | 0.384 |
| LC-2-ad | 0.474 | 0.426 | 0.401 | 0.295 | 0.304 | 0.116 | 0.251 | 0.107 | 0.108 | 0.105 | 0.736 | 0.673 | 0.442 | 0.263 | 0.23 | 0.413 | 0.459 | 0.282 | 0.276 | 0.21 |
| COR-L23 | 0.351 | 0.388 | 0.243 | 0.137 | 0.109 | 0.662 | 0.632 | 0.248 | 0.137 | 0.0917 | 0.422 | 0.419 | 0.307 | 0.146 | 0.118 | 0.253 | 0.234 | 0.142 | 0.112 | 0.0947 |
| NCI-H1650 | 0.38 | 0.381 | 0.167 | 0.137 | 0.141 | 0.527 | 0.461 | 0.328 | 0.151 | 0.166 | 0.336 | 0.326 | 0.2 | 0.162 | 0.189 | 0.292 | 0.328 | 0.233 | 0.116 | 0.188 |
| SK-LU-1 | 0.455 | 0.462 | 0.22 | 0.21 | 0.142 | 0.58 | 0.386 | 0.312 | 0.266 | 0.209 | 0.58 | 0.665 | 0.239 | 0.307 | 0.276 | 0.395 | 0.364 | 0.22 | 0.242 | 0.236 |
| NCI-H1915 | 0.309 | 0.274 | 0.241 | 0.229 | 0.173 | 0.732 | 0.675 | 0.45 | 0.301 | 0.174 | 0.257 | 0.249 | 0.197 | 0.198 | 0.176 | 0.497 | 0.455 | 0.29 | 0.234 | 0.151 |
| NCI-H647 | 0.456 | 0.336 | 0.168 | 0.0894 | 0.0773 | 0.42 | 0.449 | 0.274 | 0.137 | 0.0788 | 0.286 | 0.256 | 0.137 | 0.129 | 0.0775 | 0.282 | 0.332 | 0.161 | 0.0956 | 0.0773 |
| NCI-H2009 | 0.486 | 0.462 | 0.312 | 0.228 | 0.203 | 0.787 | 0.787 | 0.387 | 0.185 | 0.139 | 0.338 | 0.388 | 0.292 | 0.194 | 0.168 | 0.171 | 0.199 | 0.117 | 0.124 | 0.123 |
| NCI-H2126 | 0.482 | 0.446 | 0.413 | 0.257 | 0.266 | 0.452 | 0.502 | 0.367 | 0.28 | 0.226 | 0.528 | 0.558 | 0.326 | 0.268 | 0.553 | 0.314 | 0.378 | 0.346 | 0.304 | 0.269 |
| LXF-289 | 0.434 | 0.338 | 0.325 | 0.114 | 0.109 | 0.701 | 0.565 | 0.576 | 0.103 | 0.0904 | 0.325 | 0.352 | 0.183 | 0.154 | 0.146 | 0.571 | 0.527 | 0.267 | 0.204 | 0.181 |
| HCC-44 | 0.146 | 0.193 | 0.134 | 0.0875 | 0.0665 | 0.623 | 0.598 | 0.572 | 0.153 | 0.159 | 0.895 | 0.937 | 0.849 | 0.419 | 0.364 | 0.949 | 0.85 | 0.636 | 0.616 | 0.338 |
| PC-3 [JPC-3] | 0.488 | 0.456 | 0.484 | 0.377 | 0.293 | 0.616 | 0.728 | 0.667 | 0.349 | 0.369 | 0.829 | 0.822 | 0.661 | 0.62 | 0.51 | 0.537 | 0.53 | 0.515 | 0.541 | 0.513 |
| HOP-62 | 0.612 | 0.553 | 0.345 | 0.147 | 0.143 | 0.579 | 0.757 | 0.373 | 0.149 | 0.103 | 0.17 | 0.217 | 0.205 | 0.136 | 0.2 | 0.431 | 0.489 | 0.233 | 0.188 | 0.14 |
